{"source": "patent US20220296566A1", "about": "“COMBINATION PRODUCT CONTAINING LIMONOID COMPOUND AND ALPHA-GLUCOSIDASE INHIBITOR” (ZHEJIANG YANGSHENGTANG INSTITUTE OF NATURAL MEDICATION CO., …, priority 2019, published 2022)", "key": {"STZ mice [1]": {"system": "STZ mice", "experiment": "Blood glucose in STZ mouse pancreatic islet β-cell injury model (Example 1)", "format": "in vivo", "conditions": "STZ ICR mice; single agent 0.02 g/kg per day by gavage, two weeks; 1 h after last administration; mean ± SD", "source_text": "Effects of limonoid compound, acarbose or combination thereof on blood glucose in mouse pancreatic islet (3-cell injury model […]\nGavage doses: the gavage dose was 0.02 g/kg per day for the limonin group, the gavage dose was 0.02 g/kg per day for the isolimonic acid group, the gavage dose was 0.02 g/kg per day for the limonin glycoside group, the gavage dose was 0.02 g/kg per day for the isolimonic acid glycoside group, the gavage dose of acarbose was 0.02 g/kg per day for the acarbose group, limonin at a dose of 0.01 g/kg and acarbose at a dose of 0.01 g/kg were simultaneously gavaged per day for the limonin/acarbose combination group, isolimonic acid at a dose of 0.01 g/kg and acarbose at a dose of 0.01 g/kg were simultaneously gavaged per day for the isolimonic acid/acarbose combination group, limonin glycoside at a dose of 0.01 g/kg and acarbose at a dose of 0.01 g/kg were simultaneously gavaged per day for the limonin glycoside/acarbose combination group, isolimonic acid glycoside at a dose of 0.01 g/kg and acarbose at a dose of 0.01 g/kg were simultaneously gavaged per day for the isolimonic acid glycoside/acarbose combination group, the gavage volume was 10 mL/kg, and the normal group and the model group were administrated with 10 mL/kg of distilled water. […] The data were expressed as mean and standard deviation. […]"}, "STZ mice [2]": {"system": "STZ mice", "experiment": "Blood glucose in STZ mouse pancreatic islet β-cell injury model (Example 3)", "format": "in vivo", "conditions": "STZ ICR mice; single agent 0.1 g/kg per day by gavage, two weeks; 1 h after last administration; mean ± SD", "source_text": "Effects of limonoid compound, acarbose or combination thereof on blood glucose in mouse pancreatic islet (β-cell injury model In this example, a mouse pancreatic islet (β-cell injury model was established by modeling ICR mice with streptozotocin (STZ) (Li Nan et al., Protective effect of pine pollen on kidney damage in diabetic nephropathy mice, Science and Technology Review, 2014, 32 (4/5): 95-99), and used to complete the evaluation of hypoglycemic effect in animals (this model could simulate pancreatic islet (β-cell damage state of type I and type II diabetics). The limonoid compound was selected from the group consisting of […], and […] glycoside, and acarbose single administration group, […] single administration group, […] single administration group, […] glycoside singe administration group, and respective combination thereof with acarbose administration groups were set. Conditions of experimental feeding: ICR mice (20±2 g), aged 6 weeks, purchased from Zhejiang Academy of Medical Sciences, and subjected to experimental feeding after 7 days of preliminary feeding. […] The data were expressed as mean and standard deviation. The data before and after were analyzed by t-test, and P<0.05 was considered statistically significant."}}}
{"smiles": "C[C@H]1O[C@H](O[C@H]2[C@H](O)[C@@H](O)[C@@H](O[C@H]3[C@H](O)[C@@H](O)C(O)O[C@@H]3CO)O[C@@H]2CO)[C@H](O)[C@@H](O)[C@@H]1N[C@H]1C=C(CO)[C@@H](O)[C@H](O)[C@H]1O", "note": "(some centres unmarked) [Acarbose, acarbose]", "values": [{"measurement": "Blood glucose value", "setting": "STZ mice [1]", "value": "22.1 ± 3.4", "unit": "mmol/L"}, {"measurement": "Blood glucose value", "setting": "STZ mice [2]", "value": "20.6 ± 4.5", "unit": "mmol/L"}]}
